US9908897B2, “Spirocyclic derivatives” (CHRONOS THERAPEUTICS LIMITED, priority 2014, dated 2018)

How the values were obtained:
[1] = target: human dopamine transporter (DAT) (Homo sapiens (Human), UniProt Q01959); experiment: Scintillation Proximity Assay (SPA) competition binding, human DAT; settings: recombinant hDAT-CHO membranes, [3H]WIN-35,428
Text: (§1) Measure of Affinity to the Human Transporters DAT, NET and SERT
In the context of the present invention pKi values (corresponding to the antilogarithm of Ki) are used instead of Ki; pKi are only estimated to be accurate to about 0.3 log unit.
(§2) Scintillation Proximity Assay (SPA) for Human DAT, NET and SERT Binding
(§3) Chinese Hamster Ovary (CHO) cells stably expressing either human DAT (hDAT-CHO) or human NET (hNET-CHO) or human SERT (hSERT-CHO) are used for the membrane preparations for radioligand binding assays using Scintillation proximity Assay (SPA) technique. Each cell line is cultured independently in F-12K Nutrient Mixture containing 10% of Fetal Bovine Serum (FBS) supplemented with 450 μg/ml G-418. When cells are at 70-80% of confluence 3 mM Na Butyrate was added to the cell culture medium. After 24 h of incubation, the culture medium was removed and the cells detached with Versene (DAT) or by scraping (NET and SERT). Cell suspension is centrifuged at 41,000 g for 10 minutes at 4° C. The resultant pellets are re-suspended in 15 volumes of Ice-cold buffer (20 mM HEPES, 145 mM NaCl, 5 mM KCl, pH7.3), homogenized using an Ultra Turrax homogeniser and centrifuged as before. The resultant membrane pellets are re-suspended in up to 15 volume of ice-cold buffer, incubated for 20 minutes at 37-C and centrifuged as before at 41,000 g. The final membrane pellets are re-suspended into 5-10 volumes of ice-cold buffer, dispensed into 0.5 ml aliquots and stored at −80° C. until use. Protein concentration for each preparation is determined using Bio-Rad Protein Assay kit.
(§4) The affinity of the compounds of the invention to the human DAT or NET or SERT transporters is assessed by using the [^3H]WIN-35,428 or [^3H]nisoxetine or [^3H]citalopram binding assays in recombinant human DAT, NET and SERT membranes with the SPA technology. The final assay volume is 50 μL in 384 well plates.
(§5) Briefly, 0.5 μL of test compound in neat DMSO or 0.5 μL of DMSO for total binding (TB) or 0.5 μL of indatraline 1 mM (10 μM final concentration) for non specific binding (NSB) are added to the assay plate. 50 μL of the SPA mixture is added to each well, containing: 30 μg/mL or 10 μg/mL or 25 μg/mL DAT, NET, SERT membranes, respectively; 5 nM [^3H]WIN-35,428 or 5 nM [^3H]nisoxetine or 1 nM [^3H]citalopram, for DAT, NET, SERT assay, respectively; 2.5 mg/mL or 1 mg/mL or 4 mg/mL WGA-PVT SPA beads (PerkinElmer RPNQ0001, for DAT, NET, SERT assay, respectively. All components are added to Assay Buffer (20 mM HEPES pH 7.4, 145 mM NaCl, 5 mM KCl, 0.01% Pluronic F-127). 0.02% BSA was used for DAT binding only. Plates are sealed with Topseal A and centrifuged 1 min, 800 rpm. Plates are loaded into a 1450 Microbeta TriLux (Perkin-Elmer) plate reader and the radioactivity counted after at least 4 hrs or overnight incubation at room temperature. Curve fitting and IC50 estimations are performed using a four parameter model in XLfit (IDBS, Guilford, UK) for Microdoft Excel (Microsoft, Redmond, Wash.).

[2] = target: human norepinephrine transporter (NET) (Homo sapiens (Human), UniProt P23975); experiment: Scintillation Proximity Assay (SPA) competition binding, human NET; settings: recombinant hNET-CHO membranes, [3H]nisoxetine
human norepinephrine transporter (NET), sequence (P23975 whole entry): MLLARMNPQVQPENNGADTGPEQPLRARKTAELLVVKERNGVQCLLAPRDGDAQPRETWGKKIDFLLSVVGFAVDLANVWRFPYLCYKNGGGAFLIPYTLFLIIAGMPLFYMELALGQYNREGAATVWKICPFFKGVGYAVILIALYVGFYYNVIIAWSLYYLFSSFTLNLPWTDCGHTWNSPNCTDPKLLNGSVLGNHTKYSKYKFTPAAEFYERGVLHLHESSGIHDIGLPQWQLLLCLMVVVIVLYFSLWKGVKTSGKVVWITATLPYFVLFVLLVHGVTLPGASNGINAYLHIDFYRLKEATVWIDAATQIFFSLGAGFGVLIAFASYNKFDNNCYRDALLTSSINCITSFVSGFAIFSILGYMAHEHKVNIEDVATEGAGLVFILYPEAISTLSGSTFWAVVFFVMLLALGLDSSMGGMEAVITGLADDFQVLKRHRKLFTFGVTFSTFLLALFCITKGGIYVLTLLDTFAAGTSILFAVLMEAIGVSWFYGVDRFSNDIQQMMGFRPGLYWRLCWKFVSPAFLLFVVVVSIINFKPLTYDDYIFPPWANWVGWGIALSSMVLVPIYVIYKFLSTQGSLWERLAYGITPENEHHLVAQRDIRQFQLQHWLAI
Text: as §1
(§6) Affinity is expressed in terms of inhibition constant (Ki) of the compounds of the invention for DAT, NET and SERT, and it is typically calculated from the IC50 values obtained in competition experiments using Cheng and Prusoff equation (Cheng and Prusoff, Biochem. Pharmacol. 22:3099, 1973). In the context of the present invention pKi values (corresponding to the antilogarithm of Ki) are used instead of Ki; pKi are only estimated to be accurate to about 0.3 log unit.
as §2, §3, §4, §5

[3] = target: human serotonin transporter (SERT) (Homo sapiens (Human), UniProt P31645); experiment: Scintillation Proximity Assay (SPA) competition binding, human SERT; settings: recombinant hSERT-CHO membranes, [3H]citalopram
human serotonin transporter (SERT), sequence (P31645 whole entry): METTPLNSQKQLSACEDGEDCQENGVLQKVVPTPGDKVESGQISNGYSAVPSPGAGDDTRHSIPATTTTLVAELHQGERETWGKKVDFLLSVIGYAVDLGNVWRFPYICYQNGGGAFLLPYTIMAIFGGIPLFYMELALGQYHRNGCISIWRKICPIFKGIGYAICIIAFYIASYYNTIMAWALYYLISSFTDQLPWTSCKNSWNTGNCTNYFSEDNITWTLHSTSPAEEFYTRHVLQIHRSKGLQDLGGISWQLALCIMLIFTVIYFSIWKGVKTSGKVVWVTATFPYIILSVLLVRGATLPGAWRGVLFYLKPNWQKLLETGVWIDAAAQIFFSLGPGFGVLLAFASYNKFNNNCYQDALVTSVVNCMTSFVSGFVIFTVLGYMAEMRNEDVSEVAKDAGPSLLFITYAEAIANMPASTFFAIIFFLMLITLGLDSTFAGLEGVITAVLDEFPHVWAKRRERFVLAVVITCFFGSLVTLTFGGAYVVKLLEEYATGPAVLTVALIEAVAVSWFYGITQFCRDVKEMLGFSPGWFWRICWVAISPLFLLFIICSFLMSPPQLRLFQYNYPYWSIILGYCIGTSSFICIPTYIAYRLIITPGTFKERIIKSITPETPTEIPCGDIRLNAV
Text: as §1, §6, §2, §3, §4, §5

human dopamine transporter (DAT), sequence (Q01959 whole entry): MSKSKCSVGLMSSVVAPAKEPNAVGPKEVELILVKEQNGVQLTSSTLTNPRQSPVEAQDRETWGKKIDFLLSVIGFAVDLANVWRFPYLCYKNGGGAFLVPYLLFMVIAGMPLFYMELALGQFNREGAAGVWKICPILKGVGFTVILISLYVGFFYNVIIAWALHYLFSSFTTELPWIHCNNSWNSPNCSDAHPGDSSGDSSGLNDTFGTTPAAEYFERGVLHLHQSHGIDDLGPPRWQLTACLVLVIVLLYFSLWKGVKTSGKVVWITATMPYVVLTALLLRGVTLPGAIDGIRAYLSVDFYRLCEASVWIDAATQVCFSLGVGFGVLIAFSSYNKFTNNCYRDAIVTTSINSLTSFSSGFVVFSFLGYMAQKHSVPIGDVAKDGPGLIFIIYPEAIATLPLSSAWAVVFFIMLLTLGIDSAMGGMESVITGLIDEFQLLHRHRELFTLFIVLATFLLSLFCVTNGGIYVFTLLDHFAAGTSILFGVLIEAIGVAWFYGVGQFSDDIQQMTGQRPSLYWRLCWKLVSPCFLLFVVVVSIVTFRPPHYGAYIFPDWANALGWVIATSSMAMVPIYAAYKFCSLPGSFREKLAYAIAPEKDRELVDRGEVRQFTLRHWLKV

SMILES	pIC50 DAT [1]	pIC50 NET [2]	pIC50 SERT [3]	IC50 [3] [µM]
N#Cc1ccc(Oc2ccccc2)cc1N1CCC2(CC1)CNCCO2 [Example 27, 2-{1-oxa-4,9-diazaspiro[5.5]undecan-9-yl}-4-phenoxybenzonitrile]	7.54	5.69	5.15	
Cc1ccc(Oc2ccccc2)cc1N1CCC2(CC1)CNCCO2 [Example 29, 9-(2-methyl-5-phenoxyphenyl)-1-oxa-4,9-diazaspiro[5.5]undecane]	7.44	6.01	5.80	
Fc1cccc(Oc2cncc(N3CCC4(CC3)CNCCO4)c2)c1 [Example 31, 9-[5-(3-fluorophenoxy)pyridin-3-yl]-1-oxa-4,9-diazaspiro[5.5]undecane]	7.43	5.96	5.71	
c1ccc(Cc2cccc(N3CCC4(CC3)CNCCO4)c2)cc1 [Example 33, 9-(3-benzylphenyl)-1-oxa-4,9-diazaspiro[5.5]undecane]	6.42	5.54	5.73	
Cc1c(C#N)cc(N2CCC3(CC2)CNCCO3)cc1Oc1cccc(F)c1.Cl [Example 35, 3-(3-fluorophenoxy)-2-methyl-5-{1-oxa-4,9-diazaspiro[5.5]undecan-9-yl}benzonitrile hydrochloride]	8.16	6.52	8.45	
Cl.Fc1cccc(Oc2cccc(N3CCC4(CC3)CNCCO4)n2)c1 [Example 36, 9-[6-(3-fluorophenoxy)pyridin-2-yl]-1-oxa-4,9-diazaspiro[5.5]undecane hydrochloride]	7.37	5.73	5.66	
Cl.N#Cc1cc(Oc2cccc(F)c2)nc(N2CCC3(CC2)CNCCO3)c1 [Example 38, 2-(3-fluorophenoxy)-6-{1-oxa-4,9-diazaspiro[5.5]undecan-9-yl}pyridine-4-carbonitrile hydrochloride]	8.61	6.75	7.27	
Cl.N#Cc1c(C(F)(F)F)cc(N2CCC3(CC2)CNCCO3)nc1Oc1cccc(F)c1 [Example 39, 2-(3-fluorophenoxy)-6-{1-oxa-4,9-diazaspiro[5.5]undecan-9-yl}-4-(trifluoromethyl)pyridine-3-carbonitrile hydrochloride]	6.68	5.78	4.50	
Cl.N#Cc1c(C(F)(F)F)cc(Oc2cccc(F)c2)nc1N1CCC2(CC1)CNCCO2 [Example 40, 6-(3-fluorophenoxy)-2-{1-oxa-4,9-diazaspiro[5.5]undecan-9-yl}-4-(trifluoromethyl)pyridine-3-carbonitrile hydrochloride]	7.25	6.29	5.35	
Cc1cc(Oc2cccc(OC(F)(F)F)c2)nc(N2CCC3(CC2)CNCCO3)n1.Cl [Example 47, 9-{4-methyl-6-[3-(trifluoromethoxy)phenoxy]pyrimidin-2-yl}-1-oxa-4,9-diazaspiro[5.5]undecane hydrochloride]	6.59	5.51	5.27	
Cc1cc(Oc2cc(F)cc(F)c2)nc(N2CCC3(CC2)CNCCO3)n1.Cl [Example 50, 9-[4-(3,5-difluorophenoxy)-6-methylpyrimidin-2-yl]-1-oxa-4,9-diazaspiro[5.5]undecane hydrochloride]	8.24	6.96	5.11	
Cc1cc(Oc2ccccc2C)nc(N2CCC3(CC2)CNCCO3)n1.Cl [Example 51, 9-[4-methyl-6-(2-methylphenoxy)pyrimidin-2-yl]-1-oxa-4,9-diazaspiro[5.5]undecane hydrochloride]	7.33	5.78	5.21	
COc1ccccc1Oc1cc(C)nc(N2CCC3(CC2)CNCCO3)n1.Cl [Example 52, 9-[4-(2-methoxyphenoxy)-6-methylpyrimidin-2-yl]-1-oxa-4,9-diazaspiro[5.5]undecane hydrochloride]	5.96	5.30		> 100
Cc1cc(Oc2cccnc2)nc(N2CCC3(CC2)CNCCO3)n1.Cl [Example 53, 9-[4-methyl-6-(pyridin-3-yloxy)pyrimidin-2-yl]-1-oxa-4,9-diazaspiro[5.5]undecane hydrochloride]	6.63	5.21	4.56	
Cc1cnc(N2CCC3(CC2)CNCCO3)nc1Oc1cccc(F)c1.Cl [Example 54, 9-[4-(3-fluorophenoxy)-5-methylpyrimidin-2-yl]-1-oxa-4,9-diazaspiro[5.5]undecane hydrochloride]	6.96	5.34	5.00	
Cl.Fc1cccc(Oc2cc(C(F)(F)F)nc(N3CCC4(CC3)CNCCO4)n2)c1 [Example 56, 9-[4-(3-fluorophenoxy)-6-(trifluoromethyl)pyrimidin-2-yl]-1-oxa-4,9-diazaspiro[5.5]undecane hydrochloride]	8.42	6.37	5.77	
Cl.Fc1ccc(Oc2cc(C(F)(F)F)nc(N3CCC4(CC3)CNCCO4)n2)cc1 [Example 58, 9-[4-(4-fluorophenoxy)-6-(trifluoromethyl)pyrimidin-2-yl]-1-oxa-4,9-diazaspiro[5.5]undecane hydrochloride]	7.53	5.52	7.31	
Cl.FC(F)(F)c1cc(Oc2cccs2)nc(N2CCC3(CC2)CNCCO3)n1 [Example 60, 9-[4-(thiophen-2-yloxy)-6-(trifluoromethyl)pyrimidin-2-yl]-1-oxa-4,9-diazaspiro[5.5]undecane hydrochloride]	7.34	5.75	5.83	
COc1cc(Cc2ccccc2)nc(N2CCC3(CC2)CNCCO3)n1.Cl [Example 61, 9-(4-benzyl-6-methoxypyrimidin-2-yl)-1-oxa-4,9-diazaspiro[5.5]undecane hydrochloride]	6.67	5.29	4.89	
CSc1cc(Oc2cccc(F)c2)nc(N2CCC3(CC2)CNCCO3)n1.Cl [Example 63, 9-[4-(3-fluorophenoxy)-6-(methylsulfanyl)pyrimidin-2-yl]-1-oxa-4,9-diazaspiro[5.5]undecane hydrochloride]	8.07	6.34	5.15	
CSc1cc(N2CCC3(CC2)CNCCO3)nc(Oc2cccc(F)c2)n1.Cl [Example 64, 9-[2-(3-fluorophenoxy)-6-(methylsulfanyl)pyrimidin-4-yl]-1-oxa-4,9-diazaspiro[5.5]undecane hydrochloride]	6.38	5.35	4.86	
Cl.Fc1cccc(Oc2cc(C(F)(F)F)nc(N3CCOC4(CCNCC4)C3)n2)c1 [Example 67, 4-[4-(3-fluorophenoxy)-6-(trifluoromethyl)pyrimidin-2-yl]-1-oxa-4,9-diazaspiro[5.5]undecane hydrochloride]	7.80	6.02	5.32	
